In patent publication US20120225092A1, “COSMETIC USE OF SKIN CELL AUTOPHAGY ACTIVATORS” (SOCIETE INDUSTRIELLE LIMOUSINE D'APPLICATION BIOLOGIQUE …, priority 2008, published 2012):
Read-outs that look alike come from different tables or passages of the source.

Key:
[1] = tested on: phosphorylated protein p53; conditions: H2O2 125 μM, relative to control without stress
Procedure: (§1) The protocol is as follows: • Cultivation of cells for 24 hours in a complete culture medium. • Removal of the culture medium and replacement with the non-nutritive culture medium that contains the oxidizing agent H2O2 for 3 hours (different doses of H2O2—125 μM and/or 250 μM—have been tested). • Removal of the oxidizing agent and the non-nutritive culture medium, replacement by a complete culture medium without an oxidizing agent. • Evaluation of the expression of MAP-LC3, the phosphorylated protein p53, or the protein DRAM after cellular recovery. Several recovery times have been selected (0.5 hour, 1 hour, 1.5 hours, or 2 hours of recovery).
It is also possible to evaluate the autophagy of stressed cutaneous cells by visualizing the expression of the phosphorylated protein p53 by Western Blott.
The evaluation of the expression of the phosphorylated protein p53 has therefore been analyzed under these moderate stress conditions with 125 μM of H2O2 on HaCaT keratinocyte cultures and on normal human keratinocytes. The expression of phosphorylated p53 is presented in the table below in percentage relative to the control (without stress).

MAP-LC3 [2] = conditions: relative to control without stress
Procedure: This study has as its objective to compare the autophagy level of young cells (from donors with a mean age of 26 years) and aged cells (from donors with a mean age of 70 years) that are subjected to the same oxidative and nutritive stresses.
The evaluation of the autophagy level was considered by the analysis of the expression of the protein MAP-LC3 by Western Blott.
The protocol that is put into place is as follows: • Cultures of so-called young or aged cells for 24 hours in the complete culture medium, • Removal of the complete culture medium, replacement with the non-nutritive culture medium that contains the oxidizing agent H2O2 for 3 hours at different doses, • Removal of the oxidizing agent, replacement by the complete culture medium without an oxidizing agent, • Evaluation of the expression of MAP-LC3 after cellular recovery.

MAP-LC3 [3] = tested on: MAP-LC3
Procedure: as §1
It is possible to evaluate the autophagy of stressed cutaneous cells by visualizing the expression of the protein MAP-LC3 by immunofluorescent marking.
The evaluation of the expression MAP-LC3 was analyzed under these moderate stress conditions (125 μM and 250 μM of hydrogen peroxide H2O2) on HaCaT keratinocyte cultures and on normal human keratinocytes. With the immunomarking results being qualitative, several levels of expression of ATG5-12 were defined: […]

protein DRAM = conditions: H2O2 125 μM, relative to control without stress
Procedure: as §1
It is also possible to evaluate the autophagy of stressed cutaneous cells by visualizing the expression of the protein DRAM by Western Blott.
The evaluation of the expression of DRAM was therefore analyzed under these moderate stress conditions with 125 μM of H2O2 on HaCaT keratinocyte cultures and on normal human keratinocytes. The expression of DRAM is presented in the table below in percentage relative to the control (without stress).

OO [H2O2, hydrogen peroxide]
Phosphorylated Expression p53 (%) ([1]; recovery time 0.5 hour): 221% | Phosphorylated Expression p53 (%) ([1]; recovery time 1 hour): 140% | Phosphorylated Expression p53 (%) ([1]; recovery time 2 hours): 128% | Expression of MAP-LC3 On Aged Cells (MAP-LC3 [2]; H2O2 125 μM for 3 hours, aged cells (donors mean age 70 years)): 138% | Expression of MAP-LC3 On Young Cells (MAP-LC3 [2]; H2O2 125 μM for 3 hours, young cells (donors mean age 26 years)): 172% | Expression of MAP-LC3 On Aged Cells (MAP-LC3 [2]; H2O2 250 μM for 3 hours, aged cells): 187% | Expression of MAP-LC3 On Young Cells (MAP-LC3 [2]; H2O2 250 μM for 3 hours, young cells): 322% | Expression of MAP-LC3 On Aged Cells (MAP-LC3 [2]; H2O2 400 μM for 3 hours, aged cells): 135% | Expression of MAP-LC3 On Young Cells (MAP-LC3 [2]; H2O2 400 μM for 3 hours, young cells): 168% | Expression of MAP-LC3 On Aged Cells (MAP-LC3 [2]; H2O2 600 μM for 3 hours, aged cells): 96% | Expression of MAP-LC3 On Young Cells (MAP-LC3 [2]; H2O2 600 μM for 3 hours, young cells): 143% | Expression of MAP-LC3 On Aged Cells (MAP-LC3 [2]; H2O2 1000 μM for 3 hours, aged cells): 92% | Expression of MAP-LC3 On Young Cells (MAP-LC3 [2]; H2O2 1000 μM for 3 hours, young cells): 117% | Expression of MAP-LC3 (MAP-LC3 [3]; H2O2 125 μM for 3 hours in non-nutritive medium, recovery time 0.5 hour, HaCaT and normal human keratinocytes): ++ | Expression of MAP-LC3 (MAP-LC3 [3]; H2O2 125 μM for 3 hours in non-nutritive medium, recovery time 1 hour): ++ | Expression of MAP-LC3 (MAP-LC3 [3]; H2O2 125 μM for 3 hours in non-nutritive medium, recovery time 1.5 hours): +++ | Expression of MAP-LC3 (MAP-LC3 [3]; H2O2 125 μM for 3 hours in non-nutritive medium, recovery time 2 hours): ++ | Expression of MAP-LC3 (MAP-LC3 [3]; H2O2 250 μM for 3 hours in non-nutritive medium, recovery time 0.5 hour): ++ | Expression of MAP-LC3 (MAP-LC3 [3]; H2O2 250 μM for 3 hours in non-nutritive medium, recovery time 1 hour): +++ | Expression of MAP-LC3 (MAP-LC3 [3]; H2O2 250 μM for 3 hours in non-nutritive medium, recovery time 1.5 hours): ++ | Expression of MAP-LC3 (MAP-LC3 [3]; H2O2 250 μM for 3 hours in non-nutritive medium, recovery time 2 hours): + | Expression of DRAM (%) (protein DRAM; recovery time 0.5 hour): 120% | Expression of DRAM (%) (protein DRAM; recovery time 1 hour): 180% | Expression of DRAM (%) (protein DRAM; recovery time 1.5 hours): 390% | Expression of DRAM (%) (protein DRAM; recovery time 2 hours): 200%
